Columns and labels:
[1] = aqueous solutions; cited from earlier work
[2] = system: PA smooth muscle cell contraction in the lungs from new born rats (U46619 vasoconstriction); assay: Non-specific inhibition test: U46619 vasoconstriction response in isolated perfused lungs; parameters: species or system Sprague-Dawley rats; settings: U46619 5 ng/mL
Experimental: (§1) Isolated perfused lung preparation prepared from newborn rats. Male or female newborn (less than 48 hours old) Sprague-Dawley rats are anesthetized with pentobarbital sodium (0.65 mg/kg; ip), and heparin (1000 U/kg) is administered intravenously. Lungs are isolated as follows. Briefly, the lungs and the heart are remove en block and the pulmonary artery (PA) and left atrium are cannulated and perfused with a buffered salt solution (BSS) (NaCl (117 mM), KCl (4 mM), NaHCO3 (18 mM), MgSO4 (0.76 mM), NaHPO4′H2O (1 mM), CaCl2 (1.21 mM), and glucose (1 g/L)) containing bovine serum albumin (0.5% w/v) and indomethacin (10 mg/L). After flushing the pulmonary circulation with perfusate (100-200 mL), the lungs are perfused from a recirculating system (35 mL) at 8 mL/min. Perfusate is maintained at […], pH 7.4, and bubbled with 5% O2, 5% CO2, and 90% N2. Left atrial pressure is maintained at 1 cm H2O2 by elevating the venous outflow cannula. The lungs are ventilated with a small animal respirator using a humidified gas mixture of 21% O2, 5% CO2, and 74% N2 (normoxia) at a rate of 54 breaths/in, a tidal volume of 2-3 mL and an end-expiratory pressure of 3 cm H2O2. Left atrial and PA pressures are continuously recorded on a multichannel strip chart recorder (Grass Instruments, Quincy, Mass.).
Hypoxia-induced changes in pulmonary vascular impedance are represented as the change in PA pressure observed during hypoxic ventilation under constant flow conditions, compared with normoxia, in cm H2O. Two hypoxic challenges are performed and averaged to define the baseline response prior to the experimental intervention, thus allowing each lung to act as its own control. The experimental agents then are added to the reservoir and allowed to recirculate for 5-10 minutes, after which two more hypoxic challenges are administered and averaged to evaluate the effects of the intervention. In the continued presence of the experimental agents, the stable thromboxane A2 analog, U46619 (5 ng/mL) is then added to the reservoir to determine the effect on the ability to respond to a receptor-mediated vasoconstricting agonist. This provided a measure of the specificity of the intervention for the response to hypoxia.
Non-specific inhibition of PA smooth muscle cell contraction in the lungs from new born rats. To determine whether the pharmacological agents that inhibited the HPV response in our study might also affect the response a receptor-mediated vasoconstrictor, studies are carried out using the stable Thromboxane A2 analog, U46619 (5 ng/mL). Experiments are performed to assess the U46619 response before and after the addition of the experimental agents. Briefly, lungs are subjected to a challenge of U46619 and the change in PA pressure is measured. The vasculature is then washed out with fresh perfusate until the PA pressure returned to baseline (approximately 10 minutes elapsed time), after which the experimental agents are administered to the reservoir. After 10 minutes, a second dose of U46619 is added to the reservoir and the change in PA pressure is measured. Only Rotenone blunted the U46619 vasoconstriction at 5 μg/mL. Myxothiazol (50 μg/mL), cyanide (10 μM), ebselen (50 μM), and DDC (1 μM) had no effect on the U46619 vasoconstriction response. DPI (10 μM), rotenone (50 ng/mL), antimycin A (1 ng/mL), PDTC (10 μM), and DIDS (200 μM) augmented the U46619 vasoconstriction response.

PA myocytes [3] = settings: 10 μM
Experimental: To confirm that the loss of DCF fluorescence upon reoxygenation is not due to cell death subsequent to the opening of the mitochondrial permeability transition pore, additional studies are carried out using tetraethyrhodamine methyl ester (TMRE) to assess mitochondrial membrane potential (ΔΨm). This cationic dye equilibrates across the mitochondrial inner membrane in accordance with the AΔΨm, and changes in endothelia fluorescence at these non-quenching concentrations can be used to detect changes in mitochondrial polarization. PA myocytes on collagen-coated cover slips are loaded with TMRE (100 nM) for 45 minutes at 37° C. The cells are then placed in a flow-through chamber on an inverted microscope and perfused with M199 media without serum containing TMRE (10 nM). Fluorescence images are obtained under baseline normoxic conditions (16% O2/5% CO2) until a stable baseline is established. The PO2 of the media is then lowered for 30 mm (1% O2/5% CO2), after which it is restored to normoxia for 30 minutes.

PA endothelia myocytes = assay: DCFH oxidation (ROS probe) sensitivity check; assay type: cell-based, rat
Experimental: Pulmonary microvessel endothelia isolation and measurement of reactive oxygen species (ROS). ROS generation in pulmonary endothelia and myocytes is assessed using the probe 2′,7′-dichlorofluorescin diacetate (DCFH-DA, 5 μM Molecular Probes), which is continuously present in the perfusate. The diacetate form enters the cells where esterases cleave the acetate group, tending to trap the nonfluorescent 2′,7′-dichlorofluorescin (DCFH) intracellularly. In the presence of H2O2, this probe is oxidized to 2′,7′-dichlorofluorescein (DCF), which is quantified using fluorescence imaging (excitation: 488 nm, emission: 535 nm) in a system equipped with a 12 bit digital camera. Intensity values are reported as percent of initial values, after subtracting background (METAMORPHIC, Universal Imaging, Inc.).
To confirm that the DCFH dye is sensitive to oxidation by H2O2, additional studies are carried out in PA endothelia myocytes superfused with normoxic (16% O2) media in the presence of DCFH-DA (5 μM). […] When the H2O2-containing media is replaced with fresh media containing DCFH without H2O2, intracellular fluorescence decreased toward baseline values. These findings confirm that DCFH oxidation is sensitive to H2O2, and that oxidized DCF can leak out of viable cells and explain the decrease in fluorescence seen at reoxygenation.

[4] = system: degradation of IκB-β / NF-κB; settings: in vivo and experimental lung transplant preservation media; cited from earlier work
PA myocytes [5] = assay: SYTOX Green membrane permeability check; assay type: cell-based, rat; settings: 300 μM, plasma membrane disruption
Experimental: Pulmonary microvessel myocyte isolation from the isolated lungs from the newborn rats. Myocytes are isolated using a modification of the method of Marshall et al. (______ (1999). Freshly excised rat heart and lungs are rinsed with phosphate-buffered saline (PBS) containing penicillin and streptomycin (1%). The right ventricle is cannulated and the pulmonary vasculature is flushed with the PBS (30 mL). Using the PA cannula, M199 growth media (30 mL) containing HEPES (25 mM), and penicillin and streptomycin (1%) plus low melting point agarose (0.5%) and iron particles (0.5%), is flushed through the pulmonary vasculature. Because the iron particles are too large to pass through the capillaries, only the arteries contained iron particles. The airways are filled via the trachea with M199 (15 mL) containing low melting point agarose (1%) without iron. The lungs are plunged into cold PBS to cause the agarose to gel. After 10 minutes, the lobes are dissected free and finely minced in a petri dish. […]
In steady state, increases in fluorescence occur when the rate of intracellular oxidation of the dye is accelerated. […] To confirm that the decrease in DCF fluorescence seen upon reoxygenation is not due to a loss of plasma membrane integrity, additional studies are carried out using SYTOX Green dye (100 nM) to detect changes in membrane permeability. […]

[6] = system: isolated lungs from the newborn rats; assay: HPV responses in isolated lungs: PA pressure after agonist; parameters: species or system Sprague-Dawley rats; settings: 10 nM in recirculating perfusate
Experimental: as §1
HPV responses in isolated lungs from the newborn rats. […]

In the case of `COC1=C(OC)C(=O)C(C/C=C(\C)CC/C=C(\C)CC/C=C(\C)CC/C=C(\C)CC/C=C(\C)CC/C=C(\C)CC/C=C(\C)CC/C=C(\C)CC/C=C(\C)CCC=C(C)C)=C(C)C1=O` [CoQ10, 2,3-dimethoxy-5-methyl-6-decaprenyl-1,4-benzoquinone], the solubility [1] is listed as “only lipid soluble”.

With `CCN(CC)C(=S)S` [DDC, diethyldithiocarbamate] the “effect on U46619 vasoconstriction response” value (from here on “effect”) ([2]; 1 μM) was “no effect”.

In the case of `O=S(=O)(O)c1cc(N=C=S)ccc1C=Cc1ccc(N=C=S)cc1S(=O)(=O)O` [DIDS, 4,4′-diisothiocyanatostilbene-2,2′-disulphonic acid], the “effect” value ([2]; 200 μM) is reported as “augmented”.

In the case of `c1ccc2c(c1)[I+]c1ccccc1-2` [DPI, diphenyleneiodonium], the “effect” value ([2]; 10 μM) is reported as “augmented”.

In the case of `N#CC(C#N)=NNc1ccc(OC(F)(F)F)cc1` [FCCP, carbonyl cyanide p-trifluoromethoxyphenylhydrazone], the “TMRE fluorescence (ΔΨm)” value (PA myocytes [3]) is reported as “rapid, significant decrease in fluorescence”.

In the case of `OO` [H2O2], the “intracellular DCF fluorescence” value (PA endothelia myocytes) is reported as “increased significantly and progressively”.

With `CO/C(=C/C(N)=O)[C@H](C)[C@H](/C=C/c1csc(-c2csc([C@@H](C)/C=C/C=C/C(C)C)n2)n1)OC` [Myxothiazol, myxothiazol] the “effect” value ([2]; 50 μg/mL) was “no effect”.

For `S=C(S)N1CCCC1` [PDTC, pyrrolidine dithiocarbamate], the “effect” value ([2]; 10 μM) is listed as “augmented”, the “pulmonary mean arterial pressure (MAP), edema, and cellular infiltration” value [4] is listed as “reduced” and the pulmonary oxygenation [4] is listed as “improved significantly”. The solubility [1] was “poorly soluble”.

With `C[C@@H]1CC[C@@]2(OC1)O[C@H]1[C@@H](O)[C@H]3[C@@H]4CC[C@H]5C[C@@H](O[C@@H]6O[C@H](CO)[C@H](O[C@@H]7O[C@H](CO)[C@@H](O)[C@H](O[C@@H]8OC[C@@H](O)[C@H](O)[C@H]8O)[C@H]7O[C@@H]7O[C@H](CO)[C@H](O)[C@H](O[C@@H]8O[C@H](CO)[C@@H](O)[C@H](O)[C@H]8O)[C@H]7O)[C@H](O)[C@H]6O)[C@H](O)C[C@]5(C)[C@H]4CC[C@]3(C)[C@H]1[C@@H]2C` [digitonin] the “nuclear staining with SYTOX Green” value (PA myocytes [5]) was “all cells demonstrated nuclear staining”.

For `O=c1c2ccccc2[se]n1-c1ccccc1` [ebselen], the “effect” value ([2]; 50 μM) was “no effect”.

With `C=C(C)[C@H]1Cc2c(ccc3c2O[C@@H]2COc4cc(OC)c(OC)cc4[C@@H]2C3=O)O1` [rotenone] the “effect” value ([2]; 50 ng/mL) was “augmented” and the “effect” value ([2]; 5 μg/mL, isolated perfused newborn rat lung) was “blunted”.

In the case of Angiotensin II, the “increase of PA pressure” value [6] is reported as ~2 cm H2O.

For antimycin A, the “effect” value ([2]; 1 ng/mL) was “augmented”.

B1: recombinant human IκB-α: recombinant human IκB-α which can maintain the inhibitory effect on NF-κB (protein, UniProt P25963 1-317, looked up)
NF-kappa-B inhibitor alpha: MFQAAERPQEWAMEGPRDGLKKERLLDDRHDSGLDSMKDEEYEQMVKELQEIRLEPQEVPRGSEPWKQQLTEDGDSFLHLAIIHEEKALTMEVIRQVKGDLAFLNFQNNLQQTPLHLAVITNQPEIAEALLGAGCDPELRDFRGNTPLHLACEQGCLASVGVLTQSCTTPHLHSILKATNYNGHTCLHLASIHGYLGIVELLVSLGADVNAQEPCNGRTALHLAVDLQNPDLVSLLLKCGADVNRVTYQGYSPYQLTWGRPSTRIQQQLGQLTLENLQMLPESEDEESYDTESEFTEFTEDELPYDDCVFGGQRLTL
For B1, the solubility [1] is listed as “poorly soluble”.

Source: patent US20030170223A1, “Pulmonary vasodilator surfactant compositions and method of use” (Board of Trustees of Michigan State University, priority 2002, published 2003)
